≈ marks a conversion by molar mass, not a printed value.
How the values were obtained:
[1] = Thermodynamic stability assessed as onset melting temperature; type: physicochemical
[2] = Volume of distribution at steady state in rat at 0.5 mg/kg, iv; type: ADME, organism-based; settings: in vivo, read-out: Vdss
[3] = biological target: Phosphatidylinositol 4-kinase beta (Homo sapiens, UniProt Q9UBF8); assay: Inhibition of PI4KB (unknown origin) assessed as reduction in substrate phosphorylation by FRET Adapta assay
[4] = biological target: Phosphatidylinositol 4,5-bisphosphate 3-kinase catalytic subunit gamma isoform (Mus musculus, UniProt Q9JHG7); assay: Inhibition of PI3Kgamma in C5a-stimulated mouse RAW 264 cells assessed as inhibition of AKT phosphorylation at Ser473 residue Pretreated for 15 mins followed by C5a stimulation measured after 3 mins by HTRF assay; type: cell-based
[5] = biological target: Phosphatidylinositol 4,5-bisphosphate 3-kinase catalytic subunit gamma isoform (Homo sapiens, UniProt P48736); assay: Inhibition of recombinant human PI3Kgamma assessed as reduction in ADP production using Dic8-PIP2 as substrate pre-treated for 15 mins followed by substrate addition measured after 60 mins by ADP-glo assay
[6] = biological target: Phosphatidylinositol 3-kinase catalytic subunit type 3 (Homo sapiens, UniProt Q8NEB9); assay: Inhibition of PIK3C3 (unknown origin) assessed as reduction in substrate phosphorylation by FRET Adapta assay
[7] = biological target: Phosphatidylinositol 4,5-bisphosphate 3-kinase catalytic subunit alpha isoform (Homo sapiens, UniProt P42336); assay: Inhibition of recombinant human PI3Kalpha assessed as reduction in ADP production using Dic8-PIP2 as substrate pre-treated for 15 mins followed by substrate addition measured after 60 mins by ADP-glo assay
[8] = Apparent terminal half life in rat administered via inhalation; type: ADME; settings: in vivo, inhaled or intranasal
[9] = biological target: T1, Phosphatidylinositol 4,5-bisphosphate 3-kinase catalytic subunit delta isoform (Homo sapiens, UniProt O00329); assay: Inhibition of recombinant human PI3Kdelta assessed as reduction in ADP production using Dic8-PIP2 as substrate pre-treated for 15 mins followed by substrate addition measured after 60 mins by ADP-glo assay
T1 sequence (O00329 whole entry): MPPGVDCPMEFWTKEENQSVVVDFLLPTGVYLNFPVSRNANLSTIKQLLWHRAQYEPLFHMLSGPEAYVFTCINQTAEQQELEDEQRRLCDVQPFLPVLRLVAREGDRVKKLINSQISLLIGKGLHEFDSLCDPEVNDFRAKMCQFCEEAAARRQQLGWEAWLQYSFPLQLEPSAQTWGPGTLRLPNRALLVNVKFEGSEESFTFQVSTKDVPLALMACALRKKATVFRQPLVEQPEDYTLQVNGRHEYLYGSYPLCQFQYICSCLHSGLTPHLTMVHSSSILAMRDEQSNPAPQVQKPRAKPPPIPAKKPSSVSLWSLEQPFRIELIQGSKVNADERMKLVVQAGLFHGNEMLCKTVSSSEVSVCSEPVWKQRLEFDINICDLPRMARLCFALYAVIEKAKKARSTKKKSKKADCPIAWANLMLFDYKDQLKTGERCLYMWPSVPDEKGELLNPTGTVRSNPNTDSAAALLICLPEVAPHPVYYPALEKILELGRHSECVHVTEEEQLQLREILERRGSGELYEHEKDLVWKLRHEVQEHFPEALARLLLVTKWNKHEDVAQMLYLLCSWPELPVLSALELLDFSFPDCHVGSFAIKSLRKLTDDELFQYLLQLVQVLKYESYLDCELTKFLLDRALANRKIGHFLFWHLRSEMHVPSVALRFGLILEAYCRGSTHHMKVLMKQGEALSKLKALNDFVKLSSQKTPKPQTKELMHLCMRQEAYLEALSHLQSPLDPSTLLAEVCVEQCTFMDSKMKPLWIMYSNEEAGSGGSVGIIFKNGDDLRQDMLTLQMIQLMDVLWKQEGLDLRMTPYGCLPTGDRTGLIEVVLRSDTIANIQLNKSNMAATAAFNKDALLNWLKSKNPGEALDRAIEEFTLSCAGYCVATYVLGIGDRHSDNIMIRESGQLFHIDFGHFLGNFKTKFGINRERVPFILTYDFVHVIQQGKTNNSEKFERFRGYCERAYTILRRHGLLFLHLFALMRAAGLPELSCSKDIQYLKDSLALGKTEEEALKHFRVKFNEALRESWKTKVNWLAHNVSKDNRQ

[10] = biological target: T1, Phosphatidylinositol 4,5-bisphosphate 3-kinase catalytic subunit delta isoform; assay: Inhibition of PI3Kdelta in anti-IgM-stimulated human JeKo-1 cells assessed as inhibition of AKT phosphorylation at Ser473 residue incubated for 60 mins by TR-FRET assay
[11] = Half life in rat plasma at 0.5 mg/kg, iv; type: ADME, organism-based
[12] = Clearance in rat at 0.5 mg/kg, iv; type: ADME, organism-based; settings: in vivo
[13] = biological target: Phosphatidylinositol 4-phosphate 3-kinase C2 domain-containing subunit alpha (Homo sapiens, UniProt O00443); assay: Inhibition of PIK3C2A (unknown origin) assessed as reduction in substrate phosphorylation by FRET Adapta assay
[14] = biological target: Phosphatidylinositol 4-phosphate 3-kinase C2 domain-containing subunit beta (Homo sapiens, UniProt O00750); assay: Inhibition of PIK3C2B (unknown origin) assessed as reduction in substrate phosphorylation by FRET Adapta assay
[15] = Solubility of compound in at pH 7.4 at 1 mg/ml using crystalline form of sample incubated for 24 hrs by HPLC MS analysis; type: physicochemical
[16] = Distribution coefficient, logD of compound at pH 7.4; type: physicochemical; settings: octanol/water
[17] = Permeability in human Caco2 cells; type: ADME, cell-based; settings: caco-2
[18] = biological target: Phosphatidylinositol 4-kinase alpha (Homo sapiens, UniProt P42356); assay: Inhibition of PI4KA (unknown origin) assessed as reduction in substrate phosphorylation by FRET Adapta assay
[19] = Dissociation constant, pKa of compound; type: physicochemical

Chain of Phosphatidylinositol 4,5-bisphosphate 3-kinase catalytic subunit alpha isoform (P42336 whole entry, canonical isoform): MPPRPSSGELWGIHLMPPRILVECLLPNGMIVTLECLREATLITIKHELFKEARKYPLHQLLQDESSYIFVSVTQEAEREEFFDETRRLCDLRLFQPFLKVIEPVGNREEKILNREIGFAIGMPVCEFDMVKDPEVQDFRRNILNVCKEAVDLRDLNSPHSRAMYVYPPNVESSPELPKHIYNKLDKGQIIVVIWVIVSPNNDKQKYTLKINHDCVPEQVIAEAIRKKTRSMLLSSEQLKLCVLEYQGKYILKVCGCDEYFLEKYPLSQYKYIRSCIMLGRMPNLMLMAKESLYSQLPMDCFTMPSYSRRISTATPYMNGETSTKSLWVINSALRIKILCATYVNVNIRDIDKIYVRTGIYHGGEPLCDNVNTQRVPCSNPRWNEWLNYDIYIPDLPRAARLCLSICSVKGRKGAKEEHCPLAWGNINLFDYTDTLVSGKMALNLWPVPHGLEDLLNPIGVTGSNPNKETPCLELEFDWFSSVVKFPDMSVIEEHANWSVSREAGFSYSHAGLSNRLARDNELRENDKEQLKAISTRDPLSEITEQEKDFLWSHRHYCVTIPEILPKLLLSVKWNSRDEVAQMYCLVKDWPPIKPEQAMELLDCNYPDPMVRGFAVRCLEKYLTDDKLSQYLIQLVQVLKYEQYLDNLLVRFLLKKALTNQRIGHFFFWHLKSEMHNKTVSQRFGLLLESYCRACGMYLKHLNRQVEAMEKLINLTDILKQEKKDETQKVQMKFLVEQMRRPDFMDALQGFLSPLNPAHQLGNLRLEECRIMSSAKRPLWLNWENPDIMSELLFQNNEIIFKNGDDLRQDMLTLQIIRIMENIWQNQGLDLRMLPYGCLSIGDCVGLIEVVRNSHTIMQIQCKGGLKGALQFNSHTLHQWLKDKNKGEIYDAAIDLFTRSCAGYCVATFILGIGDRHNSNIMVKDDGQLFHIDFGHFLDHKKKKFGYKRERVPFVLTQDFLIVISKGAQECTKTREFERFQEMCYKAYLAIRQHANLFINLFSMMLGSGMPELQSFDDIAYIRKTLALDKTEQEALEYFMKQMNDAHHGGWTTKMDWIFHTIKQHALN
Chain of Phosphatidylinositol 4,5-bisphosphate 3-kinase catalytic subunit gamma isoform (Homo sapiens, UniProt P48736) (P48736 whole entry, canonical isoform): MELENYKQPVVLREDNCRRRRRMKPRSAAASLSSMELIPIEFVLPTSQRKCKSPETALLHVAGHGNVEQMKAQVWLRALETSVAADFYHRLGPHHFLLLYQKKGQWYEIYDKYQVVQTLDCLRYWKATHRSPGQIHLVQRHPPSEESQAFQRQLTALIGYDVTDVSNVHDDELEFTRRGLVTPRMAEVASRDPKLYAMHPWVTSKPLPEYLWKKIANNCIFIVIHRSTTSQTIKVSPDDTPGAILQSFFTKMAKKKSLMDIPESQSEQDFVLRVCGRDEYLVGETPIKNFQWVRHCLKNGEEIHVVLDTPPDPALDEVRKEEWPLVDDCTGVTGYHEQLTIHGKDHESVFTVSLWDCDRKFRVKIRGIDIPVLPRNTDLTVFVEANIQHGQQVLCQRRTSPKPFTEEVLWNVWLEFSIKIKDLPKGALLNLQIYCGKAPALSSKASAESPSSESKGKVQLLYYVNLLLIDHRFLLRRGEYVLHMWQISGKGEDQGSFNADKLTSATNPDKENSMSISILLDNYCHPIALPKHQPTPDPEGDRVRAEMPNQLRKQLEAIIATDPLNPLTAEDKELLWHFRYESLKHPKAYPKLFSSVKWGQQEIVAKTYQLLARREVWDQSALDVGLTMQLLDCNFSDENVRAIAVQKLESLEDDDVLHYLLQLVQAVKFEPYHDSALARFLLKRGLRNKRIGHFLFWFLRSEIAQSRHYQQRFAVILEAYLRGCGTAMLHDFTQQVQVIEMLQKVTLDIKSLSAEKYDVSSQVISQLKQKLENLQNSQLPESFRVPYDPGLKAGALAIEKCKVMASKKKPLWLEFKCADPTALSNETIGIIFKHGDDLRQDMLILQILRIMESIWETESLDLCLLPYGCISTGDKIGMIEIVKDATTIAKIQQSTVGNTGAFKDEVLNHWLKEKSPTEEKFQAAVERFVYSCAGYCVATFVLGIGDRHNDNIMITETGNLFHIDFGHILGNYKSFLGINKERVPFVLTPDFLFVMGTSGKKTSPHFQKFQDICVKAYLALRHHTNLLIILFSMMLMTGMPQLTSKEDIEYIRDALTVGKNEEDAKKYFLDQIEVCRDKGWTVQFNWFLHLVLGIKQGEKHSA
Chain of Phosphatidylinositol 4,5-bisphosphate 3-kinase catalytic subunit gamma isoform (Mus musculus, UniProt Q9JHG7) (Q9JHG7 whole entry, canonical isoform): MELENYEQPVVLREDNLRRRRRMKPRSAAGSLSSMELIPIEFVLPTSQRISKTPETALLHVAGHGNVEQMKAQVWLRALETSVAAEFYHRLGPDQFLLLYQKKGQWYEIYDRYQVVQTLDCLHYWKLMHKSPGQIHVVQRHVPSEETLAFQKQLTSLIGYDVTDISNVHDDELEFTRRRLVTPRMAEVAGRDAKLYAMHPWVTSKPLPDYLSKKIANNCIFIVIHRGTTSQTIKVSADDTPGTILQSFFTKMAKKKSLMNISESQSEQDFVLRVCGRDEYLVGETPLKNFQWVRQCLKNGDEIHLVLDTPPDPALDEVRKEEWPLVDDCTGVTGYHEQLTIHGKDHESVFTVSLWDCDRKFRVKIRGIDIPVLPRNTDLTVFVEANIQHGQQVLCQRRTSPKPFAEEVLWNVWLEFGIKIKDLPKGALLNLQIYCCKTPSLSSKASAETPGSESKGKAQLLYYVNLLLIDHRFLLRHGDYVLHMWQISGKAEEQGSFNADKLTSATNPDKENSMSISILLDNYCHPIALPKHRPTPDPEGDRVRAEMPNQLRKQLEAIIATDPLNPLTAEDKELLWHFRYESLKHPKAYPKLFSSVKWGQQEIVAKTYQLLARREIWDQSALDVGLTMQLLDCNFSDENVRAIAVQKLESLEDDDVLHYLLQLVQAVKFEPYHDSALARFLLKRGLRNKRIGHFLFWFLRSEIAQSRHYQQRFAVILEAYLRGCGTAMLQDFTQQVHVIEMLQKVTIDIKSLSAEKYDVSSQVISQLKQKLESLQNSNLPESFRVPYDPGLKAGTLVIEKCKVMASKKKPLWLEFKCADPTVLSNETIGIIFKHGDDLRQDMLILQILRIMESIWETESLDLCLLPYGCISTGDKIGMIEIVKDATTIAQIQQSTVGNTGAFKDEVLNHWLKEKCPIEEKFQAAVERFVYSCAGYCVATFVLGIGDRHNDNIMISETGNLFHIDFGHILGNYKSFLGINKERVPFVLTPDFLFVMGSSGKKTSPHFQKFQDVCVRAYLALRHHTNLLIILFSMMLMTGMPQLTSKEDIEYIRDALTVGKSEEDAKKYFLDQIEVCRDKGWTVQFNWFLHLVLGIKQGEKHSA
Chain of Phosphatidylinositol 4-kinase beta (Q9UBF8 whole entry, canonical isoform): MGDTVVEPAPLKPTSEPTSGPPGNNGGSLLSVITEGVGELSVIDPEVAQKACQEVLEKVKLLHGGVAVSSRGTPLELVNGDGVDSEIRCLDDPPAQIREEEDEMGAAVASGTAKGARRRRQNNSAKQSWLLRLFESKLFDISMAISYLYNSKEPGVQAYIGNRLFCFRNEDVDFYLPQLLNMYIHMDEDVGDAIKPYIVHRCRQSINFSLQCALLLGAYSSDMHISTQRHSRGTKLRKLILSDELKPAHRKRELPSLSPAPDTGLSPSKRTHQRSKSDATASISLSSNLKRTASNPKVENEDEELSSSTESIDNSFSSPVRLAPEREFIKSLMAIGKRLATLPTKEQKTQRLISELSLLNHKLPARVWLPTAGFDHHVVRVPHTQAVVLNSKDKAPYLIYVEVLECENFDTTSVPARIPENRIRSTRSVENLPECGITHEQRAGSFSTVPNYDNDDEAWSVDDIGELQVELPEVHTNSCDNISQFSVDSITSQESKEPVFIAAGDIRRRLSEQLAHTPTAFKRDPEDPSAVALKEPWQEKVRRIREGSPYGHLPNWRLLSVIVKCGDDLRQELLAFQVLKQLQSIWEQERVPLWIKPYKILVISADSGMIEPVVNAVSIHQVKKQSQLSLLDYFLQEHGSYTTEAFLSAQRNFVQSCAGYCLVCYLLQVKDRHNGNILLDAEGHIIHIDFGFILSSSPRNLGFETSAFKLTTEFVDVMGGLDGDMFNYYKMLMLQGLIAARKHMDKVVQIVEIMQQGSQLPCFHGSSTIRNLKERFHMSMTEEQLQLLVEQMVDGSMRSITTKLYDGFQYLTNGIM
Chain of Phosphatidylinositol 3-kinase catalytic subunit type 3 (Q8NEB9 whole entry, canonical isoform): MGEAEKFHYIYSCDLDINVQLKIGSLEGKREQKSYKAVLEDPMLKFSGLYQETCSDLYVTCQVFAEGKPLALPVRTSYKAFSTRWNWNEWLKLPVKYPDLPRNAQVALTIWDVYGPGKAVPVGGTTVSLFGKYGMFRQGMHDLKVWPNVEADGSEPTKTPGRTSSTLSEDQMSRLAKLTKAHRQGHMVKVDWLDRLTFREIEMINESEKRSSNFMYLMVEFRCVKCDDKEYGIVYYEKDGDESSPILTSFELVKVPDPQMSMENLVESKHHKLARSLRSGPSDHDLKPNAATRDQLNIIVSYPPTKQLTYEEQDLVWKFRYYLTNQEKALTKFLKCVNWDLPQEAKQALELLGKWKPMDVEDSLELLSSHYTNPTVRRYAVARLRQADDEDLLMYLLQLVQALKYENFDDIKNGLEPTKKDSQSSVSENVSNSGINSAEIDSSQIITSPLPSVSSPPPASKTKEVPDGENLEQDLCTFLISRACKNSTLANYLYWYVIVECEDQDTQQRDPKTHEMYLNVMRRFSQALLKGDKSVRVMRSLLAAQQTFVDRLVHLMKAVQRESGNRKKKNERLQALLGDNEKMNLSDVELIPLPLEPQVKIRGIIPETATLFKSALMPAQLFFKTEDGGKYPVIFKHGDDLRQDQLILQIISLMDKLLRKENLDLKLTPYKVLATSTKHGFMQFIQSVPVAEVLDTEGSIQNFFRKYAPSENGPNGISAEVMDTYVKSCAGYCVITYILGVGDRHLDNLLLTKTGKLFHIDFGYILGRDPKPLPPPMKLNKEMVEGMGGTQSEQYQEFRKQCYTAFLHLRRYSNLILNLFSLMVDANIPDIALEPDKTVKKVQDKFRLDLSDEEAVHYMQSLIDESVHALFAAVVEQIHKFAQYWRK

| Tm [1] | Vd [2] | IC50 [3] | IC50 [4] | IC50 [5] | IC50 [6] | IC50 [7] | half-life [8] | IC50 [9] | IC50 [10] | half-life [11] | clearance [12] | IC50 [13] | IC50 [14] | solubility thermodynamic at 24 h [15] | logD [16] | permeability [17] | IC50 [18] | pKa [19] | Structure (SMILES) |
| --- | --- | --- | --- | --- | --- | --- | --- | --- | --- | --- | --- | --- | --- | --- | --- | --- | --- | --- | --- |
| 377 °C | 8.6 L/kg | 20 nM | 0.794 nM | 2.51 nM | 25.1 nM | 39.8 nM | 6.9 h | 0.631 nM | 2 nM | 1.8 h | 110 mL/min/kg | 316 nM | 0.794 nM | 0.084 µM (≈ 0.0489 µg/mL) | 3.7 | Permeable | > 10000 nM | – | Cc1nc2sc1-c1cc3c(c(c1)S(=O)(=O)NCCOCCNC(=O)c1cccc(n1)N2)C(=O)N([C@@H](C)C1CC1)C3 |
| 349 °C | 7.3 L/kg | – | 1.58 nM | 1.58 nM | – | 39.8 nM | 7.5 h | 0.501 nM | 3.16 nM | 1.8 h | 83 mL/min/kg | – | – | 1.09 µM (≈ 0.649 µg/mL) | 3.9 | Impermeable | – | 6.4 | Cc1nc2sc1-c1cc3c(c(c1)S(=O)(=O)NCCN(C)CCNC(=O)c1cccc(n1)N2)C(=O)N([C@@H](C)C1CC1)C3 |
| 187 °C | 5.4 L/kg | 501 nM | – | – | 31.6 nM | 100 nM | 4.2 h | – | – | 0.7 h | 136 mL/min/kg | 3160 nM | – | 0.337 µM (≈ 0.211 µg/mL) | 3.5 | Impermeable | > 10000 nM | – | Cc1nc(Nc2cccc(N3CCOCC3=O)n2)sc1-c1cc2c(c(S(=O)(=O)NC3COC3)c1)C(=O)N([C@@H](C)C1CC1)C2 |

From ChEMBL document CHEMBL5029145, “Discovery of AZD8154, a Dual PI3Kγδ Inhibitor for the Treatment of Asthma” (J Med Chem, 2021)
